The conditions of data set [1]: magnetic field of 3 Tesla; reference cited; cited from earlier work.
In data set [2] the test system is brain metastases. The data set can be described thus: MRI signal enhancement in brain metastases, Nano-Rad phase I-b trial. The class given is in vivo, human. The note with it: D0, 15 min after i.v. Dotarem 0.2 mL/kg (0.1 mmol/kg); metastases >1 cm; mean ±SD. From the text:
This study is part of a prospective dose escalation phase I-b clinical trial to evaluate the tolerance of the intravenous administration of radiosensitizing AGuIX nanoparticles in combination with whole brain radiotherapy for the treatment of brain metastases. The Nano-Rad trial (Radiosensitization of Multiple Brain Metastases Using AGuIX Gadolinium Based Nanoparticles) was registered as NCT02820454. Here, we report the findings of the MRI protocol applied to the 15 recruited patients. The objectives assigned to this MRI ancillary study were to i) assess the distribution of AGuIX nanoparticles in brain metastases and surrounding healthy tissues and ii) to measure the T1-weighted contrast enhancement and nanoparticle concentration in brain metastases and surrounding healthy tissues after intravenous administration of AGuIX nanoparticles (Verry C, et al. BMJ Open. 9:e023591 (2019)).
Patients with multiple brain metastases ineligible for local treatment by surgery or stereotactic radiation were recruited. […]

Regarding `CNC[C@H](O)[C@@H](O)[C@H](O)[C@H](O)CO.O=C([O-])CN1CCN(CC(=O)[O-])CCN(CC(=O)O)CCN(CC(=O)[O-])CC1.[Gd+3]` [Dotarem, gadoterate meglumine], the “r1 per Gd^3+ ion” value in data set [1] was 3.5 mM⁻¹ s⁻¹. Moreover, the “MRI enhancement averaged over all measurable metastases” value in data set [2] was 182.9±116.2%.

The record behind these values is patent US20220249711A1, “METHODS FOR TREATING TUMORS” (CENTRE HOSPITALIER UNIVERSITAIRE DE GRENOBLE, priority 2019, published 2022).
